Patent publication US6291470A, “Indole derivatives process for producing the same and medicinal uses of the same” (Toray Industries, Inc., priority 1992, dated 2001)
Like-named read-outs stand apart in the source and are kept apart here.

Molecular target: T1, δ-opioid receptor (Mus musculus, UniProt P32300)
T1 construct: from tissue; host or cells: vas deferens of male ddy mice
Assay: δ-opioid antagonist activity against DPDPE in mouse vas deferens (MVD)
Conditions: for Ratio of IC50 Values: DPDPE IC50 with/without 100 nM test compound; for Ratio of IC50 Values / Kb: 20 min; for Kb: against DPDPE, test compound 100 nM
Protocol: Using mouse vas deferens (MVD), the antagonist activity against DPDPE which is a δ-opioid agonist was checked.
In this experiment, ddy male mice were used. In a Magnus' tube which is filled with Krebes-Henseleit solution (NaCl […]; KCl 4.7 mM; CaCl2 2.5 mM; KH2 PO4 1.1 mM; NaHCO3 25 mM; glucose 11 mM) kept at 37° C., and into which an atmosphere consisting of 5% carbon dioxide and 95% oxygen was flown, vas deferens taken from the animals was suspended. Electric stimulation was applied through ring-shaped platinum electrodes mounted on the upper and lower portions of the tube at a frequency of 0.1 Hz and 5.0 mS duration. The contraction of the tissue was recorded on polygraph using isometric transducer.
Then 100 nM of the test compound was added. Twenty minutes later, DPDPE was begun to be added cumulatively. The ratio of IC50 values in the presence and absence of the test compound, Ke value (the molar concentration of the test compound necessary for translating the dose-effect curve to the curve of twice dose) and pA2 value were determined. The pA2 value was determined by the method of Shild et al (Shild, H. O., Br. J. Pharmac. Chamotehr., 4, 277 (1949)). That is, the logarithm of the test compound (log[test compound]) was plotted along the abscissa and the logarithm of the value obtained by subtracting 1 from the ratio of IC50 values was plotted in the presence and absence of the test compound [log(dose ratio-1)] along the ordinate. The pA2 value was determined from the value on the abscissa when the value on the ordinate of the obtained line is 0.

T1 sequence (P32300 whole entry): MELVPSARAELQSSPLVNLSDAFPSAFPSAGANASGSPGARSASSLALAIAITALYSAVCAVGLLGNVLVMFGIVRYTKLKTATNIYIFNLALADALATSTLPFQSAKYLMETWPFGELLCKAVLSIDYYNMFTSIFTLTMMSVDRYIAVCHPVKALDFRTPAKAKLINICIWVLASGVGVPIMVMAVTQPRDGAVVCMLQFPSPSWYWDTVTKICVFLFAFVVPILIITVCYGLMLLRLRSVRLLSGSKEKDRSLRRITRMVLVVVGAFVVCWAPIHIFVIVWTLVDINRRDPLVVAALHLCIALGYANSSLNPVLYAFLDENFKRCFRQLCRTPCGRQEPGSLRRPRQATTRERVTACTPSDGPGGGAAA

Row | SMILES | Ratio of IC50 Values | Kb (read-out: Ke) | Kb (read-out: pA2 (converted)) | δ-antagonist activity relative to NTI (times that of NTI)
1 | CCOC(=O)c1ccc2[nH]c3c(c2c1)C[C@@]1(O)[C@H]2Cc4ccc(O)c5c4[C@@]1(CCN2CC1CC1)[C@H]3O5 [Compound 3, 17-cyclopropylmethyl-6,7-didehydro-4,5α-epoxy-3,14β-dihydroxy-5'-ethoxycarbonyl-6,7-2',3'-indolomorphinan] | 5.34 | 23 nM |  | 
2 | CS(=O)(=O)c1ccc2[nH]c3c(c2c1)C[C@@]1(O)[C@H]2Cc4ccc(O)c5c4[C@@]1(CCN2CC1CC1)[C@H]3O5 [Compound 6, 17-cyclopropylmethyl-6,7-didehydro-4,5α-epoxy-3,14β-dihydroxy-5'-methylsulfonyl-6,7-2',3'-indolomorphinan] | 12.6 | 8.62 nM |  | 
3 | O=[N+]([O-])c1ccc2c3c([nH]c2c1)[C@@H]1Oc2c(O)ccc4c2[C@@]12CCN(CC1CC1)[C@H](C4)[C@]2(O)C3 [Compound 79, 17-cyclopropylmethyl-6,7-didehydro-4,5α-epoxy-3,14β-dihydroxy-6'-nitro-6,7-2',3'-indolomorphinan] | 60.6 | 1.68 nM |  | 
4 | O=C(NCC1CC1)c1cccc2[nH]c3c(c12)C[C@@]1(O)[C@H]2Cc4ccc(O)c5c4[C@@]1(CCN2CC1CC1)[C@H]3O5 [Compound 46, 17-cyclopropylmethyl-6,7-didehydro-4,5α-epoxy-3,14β-dihydroxy-4'-(N-cyclopropylmethylcarbamoyl)-6,7-2',3'-indolomorphinan] | 1.39 | 256 nM |  | 
5 | CN(C)S(=O)(=O)c1ccc2c3c([nH]c2c1)[C@@H]1Oc2c(O)ccc4c2[C@@]12CCN(CC1CC1)[C@H](C4)[C@]2(O)C3 [Compound 51, 17-cyclopropylmethyl-6,7-didehydro-4,5α-epoxy-3,14β-dihydroxy-6'-(N,N-dimethylsulfamoyl)-6,7-2',3'-indolomorphinan] | 33.2 | 3.11 nM | 2.69 nM | 
6 | N#Cc1ccc2[nH]c3c(c2c1)C[C@@]1(O)[C@H]2Cc4ccc(O)c5c4[C@@]1(CCN2CC1CC1)[C@H]3O5 [Compound 8, 17-cyclopropylmethyl-6,7-didehydro-4,5α-epoxy-3,14β-dihydroxy-5'-cyano-6,7-2',3'-indolomorphinan] | 3.60 | 38.5 nM |  | 
7 | CCOC(=O)Cc1cccc2[nH]c3c(c12)C[C@@]1(O)[C@H]2Cc4ccc(O)c5c4[C@@]1(CCN2CC1CC1)[C@H]3O5 [Compound 48, 17-cyclopropylmethyl-6,7-didehydro-4,5α-epoxy-3,14β-dihydroxy-4'-ethoxycarbonylmethyl-6,7-2',3'-indolomorphinan] | 5.88 | 20.5 nM |  | 
8 | C=CCN1CC[C@]23c4c5ccc(O)c4O[C@H]2c2[nH]c4cc(C(=O)OC)ccc4c2C[C@@]3(O)[C@H]1C5 [Compound 115, 17-allyl-6,7-didehydro-4,5α-epoxy-3,14β-dihydroxy-6'-methoxycarbonyl-6,7-2',3'-indolomorphinan] | 75.4 | 1.34 nM |  | 
9 | CCOC(=O)Cc1ccc2c3c([nH]c2c1)[C@@H]1Oc2c(O)ccc4c2[C@@]12CCN(CC1CC1)[C@H](C4)[C@]2(O)C3 [Compound 49, 17-cyclopropylmethyl-6,7-didehydro-4,5α-epoxy-3,14β-dihydroxy-6'-ethoxycarbonylmethyl-6,7-2',3'-indolomorphinan] | 27.8 | 3.73 nM |  | 
10 | Oc1ccc2c3c1O[C@H]1c4[nH]c5c(ccc6cnccc65)c4C[C@@]4(O)[C@@H](C2)N(CC2CC2)CC[C@]314 [Compound 156, 17-cyclopropylmethyl-3,14β-dihydroxy-4,5α-epoxy-6,7-didehydromorphinano[6,7-b]pyrido[4,3-g]indole] | 26.6 | 3.91 nM |  | 
11 | OCCc1cccc2[nH]c3c(c12)C[C@@]1(O)[C@H]2Cc4ccc(O)c5c4[C@@]1(CCN2CC1CC1)[C@H]3O5 [Compound 40, 17-cyclopropylmethyl-6,7-didehydro-4,5α-epoxy-3, 14β-dihydroxy-4'-(2-hydroxyethyl)-6,7-2',3'-indolomorphinan] | 4.60 | 27.8 nM |  | 
12 | CS(=O)(=O)c1ccc2c3c([nH]c2c1)[C@@H]1Oc2c(O)ccc4c2[C@@]12CCN(CC1CC1)[C@H](C4)[C@]2(O)C3 [Compound 188, 17-cyclopropylmethyl-6,7-didehydro-4,5α-epoxy-3,14β-dihydroxy-6'-methylsulfonyl-6,7-2',3'-indolomorphinan] | 56.0 | 1.82 nM |  | 
13 | Oc1ccc2c3c1O[C@H]1c4[nH]c5ccc(OC(F)(F)F)cc5c4C[C@@]4(O)[C@@H](C2)N(CC2CC2)CC[C@]314 [Compound 4, 17-cyclopropylmethyl-6,7-didehydro-4,5α-epoxy-3,14β-dihydroxy-5'-trifluoromethoxy-6,7-2',3'-indolomorphinan] | 7.95 | 14.4 nM |  | 
14 | CS(=O)(=O)c1cccc2c3c([nH]c12)[C@@H]1Oc2c(O)ccc4c2[C@@]12CCN(CC1CC1)[C@H](C4)[C@]2(O)C3 [Compound 190, 17-cyclopropylmethyl-6,7-didehydro-4,5α-epoxy-3,14β-dihydroxy-7'-methylsulfonyl-6,7-2',3'-indolomorphinan] | 698 | 0.14 nM |  | 1.3-1.6 times
15 | NS(=O)(=O)c1ccc2[nH]c3c(c2c1)C[C@@]1(O)[C@H]2Cc4ccc(O)c5c4[C@@]1(CCN2CC1CC1)[C@H]3O5 [Compound 5, 17-cyclopropylmethyl-6,7-didehydro-4,5α-epoxy-3,14β-dihydroxy-5'-sulfamoyl-6,7-2',3'-indolomorphinan] | 4.36 | 29.8 nM |  | 
16 | OCCc1ccc2c3c([nH]c2c1)[C@@H]1Oc2c(O)ccc4c2[C@@]12CCN(CC1CC1)[C@H](C4)[C@]2(O)C3 [Compound 41, 17-cyclopropylmethyl-6,7-didehydro-4,5α-epoxy-3,14β-dihydroxy-6'-(2-hydroxyethyl)-6,7-2',3'-indolomorphinan] | 22.1 | 4.74 nM |  | 
17 | Oc1ccc2c3c1O[C@H]1c4[nH]c5ccc(I)cc5c4C[C@@]4(O)[C@@H](C2)N(CC2CC2)CC[C@]314 [Compound 1, 17-cyclopropylmethyl-6,7-didehydro-4,5α-epoxy-3,14β-dihydroxy-5'-iodo-6,7-2',3'-indolomorphinan] | 8.88 | 12.7 nM |  | 
18 | COC(=O)c1ccc2c3c([nH]c2c1)[C@@H]1Oc2c(O)ccc4c2[C@@]12CCN(CC1CC1)[C@H](C4)[C@]2(O)C3 [Compound 77, 17-cyclopropylmethyl-6,7-didehydro-4,5α-epoxy-3,14β-dihydroxy-6'-methoxycarbonyl-6,7-2',3'-indolomorphinan] | 742 | 0.13 nM |  | 1.3-1.6 times
19 | COC(=O)c1cccc2[nH]c3c(c12)C[C@@]1(O)[C@H]2Cc4ccc(O)c5c4[C@@]1(CCN2CC1CC1)[C@H]3O5 [Compound 76, 17-cyclopropylmethyl-6,7-didehydro-4,5α-epoxy-3,14β-dihydroxy-4'-methoxycarbonyl-6,7-2',3'-indolomorphinan] | 6.82 | 17.2 nM |  | 
20 | C=CCN1CC[C@]23c4c5ccc(O)c4O[C@H]2c2[nH]c4cccc(C(=O)OC)c4c2C[C@@]3(O)[C@H]1C5 [Compound 114, 17-allyl-6,7-didehydro-4,5α-epoxy-3,14β-dihydroxy-4'-methoxycarbonyl-6,7-2',3'-indolomorphinan] | 20.7 | 5.08 nM |  | 
21 | Oc1ccc2c3c1O[C@H]1c4[nH]c5c(C(F)(F)F)cccc5c4C[C@@]4(O)[C@@H](C2)N(CC2CC2)CC[C@]314 [Compound 118, 17-cyclopropylmethyl-6,7-didehydro-4,5α-epoxy-3,14β-dihydroxy-7'-trifluoromethyl-6,7-2',3'-indolomorphinan] | 52.9 | 1.93 nM |  | 
